Assay results as given in US11046658B2, “Aminopyrazine derivatives as PI3K-γ inhibitors” (Incyte Corporation, priority 2018, dated 2021).
Counter-ions that a name gives are not always drawn. Like-named read-outs stand apart in the source and are kept apart here.

Test system: Phosphorylated Ribosomal Protein S6 (RPS6) in THP-1 cells
Test: THP-1 RPS6 ELISA Assay
Assay type: cell-based, Human
Details: Table A1, THP-1 cells, 10 nM MCP-1, read-out: PI3Kγ_THP1_RPS6_ELISA IC50
Procedure: To measure the Phosphorylated Ribosomal Protein S6 (RPS6) in cell lysates, THP-1 cells (Human Acute Monocytic Leukemia) are purchased from ATCC (Manassas, Va.) and maintained in RPMI with 10% FBS (Gibco/Life Technologies, Carlsbad, Calif.). For the assay, THP-1 cells are serum starved overnight in RPMI, then plated in RPMI (2×10^5 cells/well in 90 μL) into 96-well flat-bottom tissue culture treated plates (Corning, Corning, N.Y.), in the presence or absence of a concentration range of test compounds. Covered plates are incubated for 2 hours at 37° C., 5% CO2 then treated with or without 10 nM MCP-1(MYBioSource, San Diego, Calif.) for 15 minutes at 37° C., 5% CO2. Plates are centrifuged at 1600 RPM and supernatants are removed. Cells are lysed in Lysis Buffer (Cell Signaling, Danvers, Mass.) with Protease Inhibitor (Calbiochem/EMD, Germany), PMSF (Sigma, St Louis Mo.), HALTS (Thermo Fisher, Rockford, Ill.) for 30 min on wet ice. Cell lysates are frozen at −80 OC before testing. The lysates are tested in the Human/Mouse/Rat Phospho-RPS6 ELISA (R&D Systems, Inc. Minn, Minn.). The plate is measured using a microplate reader (SpectraMax M5—Molecular Devices, LLC Sunnyvale, Calif.) set to 450 nm with a wavelength correction of 540. IC50 determination is performed by fitting the curve of inhibitor percent inhibition versus the log of the inhibitor concentration using the GraphPad Prism 5.0 software.

Structure (SMILES)	IC50 (Homo sapiens) [nM]	IC50 [nM]
Cc1ccc(C(O)(C(N)=O)C(F)(F)F)cc1-c1cnc(N)c(C(=O)NC2CC3CCC2O3)n1 (single isomer, unassigned) [Example 30, 3-amino-6-(5-(3-amino-1,1,1-trifluoro-2-hydroxy-3-oxopropan-2-yl)-2-methylphenyl)-N-(7-oxabicyclo[2.2.1]heptan-2-yl)pyrazine-2-carboxamide]	–	< 100
Cc1ccc(C(O)(C(N)=O)C(F)(F)F)cc1-c1cnc(N)c(C(=O)NCC(O)C(F)(F)F)n1 (single isomer, unassigned) [Example 43B, 3-amino-6-(5-(3-amino-1,1,1-trifluoro-2-hydroxy-3-oxopropan-2-yl)-2-methylphenyl)-N-(3,3,3-trifluoro-2-hydroxypropyl)pyrazine-2-carboxamide]	–	< 100
Cc1ccc(C(O)(C(N)=O)C(F)(F)F)cc1-c1cnc(N)c(C(=O)NCCC#N)n1 (stereo not shown) [Example 14, 3-amino-6-(5-(3-amino-1,1,1-trifluoro-2-hydroxy-3-oxopropan-2-yl)-2-methylphenyl)-N-(2-cyanoethyl)pyrazine-2-carboxamide trifluoroacetate]	< 100	–
Cc1ccc(C(O)(C(N)=O)C(F)(F)F)cc1-c1cnc(N)c(C(=O)NCC(C)(C)C#N)n1 (stereo not shown) [Example 15, 3-amino-6-(5-(3-amino-1,1,1-trifluoro-2-hydroxy-3-oxopropan-2-yl)-2-methylphenyl)-N-(2-cyano-2-methylpropyl)pyrazine-2-carboxamide trifluoroacetate]	< 100	–
Cc1ccc(C(O)(C(N)=O)C(F)(F)F)cc1-c1cnc(N)c(C(=O)NCC2(C#N)CCC2)n1 (stereo not shown) [Example 16, 3-amino-6-(5-(3-amino-1,1,1-trifluoro-2-hydroxy-3-oxopropan-2-yl)-2-methylphenyl)-N-((1-cyanocyclobutyl)methyl)pyrazine-2-carboxamide trifluoroacetate]	< 100	–
CC[C@@H](CC#N)NC(=O)c1nc(-c2cc(C(O)(C(N)=O)C(F)(F)F)ccc2C)cnc1N (stereo partly drawn) [Example 20, 3-amino-6-(5-(3-amino-1,1,1-trifluoro-2-hydroxy-3-oxopropan-2-yl)-2-methylphenyl)-N-((S)-1-cyanobutan-2-yl)pyrazine-2-carboxamide trifluoroacetate]	< 100	–
COC(C)(C)CNC(=O)c1nc(-c2cc(C(O)(C(N)=O)C(F)(F)F)ccc2C)cnc1N (stereo not shown) [Example 21, 3-amino-6-(5-(3-amino-1,1,1-trifluoro-2-hydroxy-3-oxopropan-2-yl)-2-methylphenyl)-N-(2-methoxy-2-methylpropyl)pyrazine-2-carboxamide trifluoroacetate]	< 100	–
Cc1ccc(C(O)(C(N)=O)C(F)(F)F)cc1-c1cnc(N)c(C(=O)NC23CC(C#N)(C2)C3)n1 (stereo not shown) [Example 23, 3-amino-6-(5-(3-amino-1,1,1-trifluoro-2-hydroxy-3-oxopropan-2-yl)-2-methylphenyl)-N-(3-cyanobicyclo[1.1.1]pentan-1-yl)pyrazine-2-carboxamide trifluoroacetate]	< 100	–
Cc1ccc(C(O)(C(N)=O)C(F)(F)F)cc1-c1cnc(N)c(C(=O)NC23CCC(C#N)(C2)C3)n1 (stereo not shown) [Example 24, 3-amino-6-(5-(3-amino-1,1,1-trifluoro-2-hydroxy-3-oxopropan-2-yl)-2-methylphenyl)-N-(4-cyanobicyclo[2.1.1]hexan-1-yl)pyrazine-2-carboxamide trifluoroacetate]	< 100	–
Cc1ccc(C(O)(C(N)=O)C(F)(F)F)cc1-c1cnc(N)c(C(=O)NC23CCC(C#N)(CC2)CC3)n1 (stereo not shown) [Example 25, 3-amino-6-(5-(3-amino-1,1,1-trifluoro-2-hydroxy-3-oxopropan-2-yl)-2-methylphenyl)-N-(4-cyanobicyclo[2.2.2]octan-1-yl)pyrazine-2-carboxamide trifluoroacetate]	< 100	–
COC[C@H]1CCN1C(=O)c1nc(-c2cc(C(O)(C(N)=O)C(F)(F)F)ccc2C)cnc1N (stereo partly drawn) [Example 26, 2-(3-(5-amino-6-((R)-2-(methoxymethyl)azetidine-1-carbonyl)pyrazin-2-yl)-4-methylphenyl)-3,3,3-trifluoro-2-hydroxypropanamide]	< 500	–

Results, then the compound that gave them:

IC50 (Homo sapiens) [nM]	IC50 [nM]	Structure (SMILES)
< 100	–	Cc1ccc(C(O)(C(N)=O)C(F)(F)F)cc1-c1cnc(N)c(C(=O)NC2CC3CCC2O3)n1 (single isomer, unassigned) [Example 29, 3-amino-6-(5-(3-amino-1,1,1-trifluoro-2-hydroxy-3-oxopropan-2-yl)-2-methylphenyl)-N-(7-oxabicyclo[2.2.1]heptan-2-yl)pyrazine-2-carboxamide]
< 100	–	Cc1ccc(C(O)(C(N)=O)C(F)(F)F)cc1-c1cnc(N)c(C(=O)NCC(O)C(F)(F)F)n1 (single isomer, unassigned) [Example 43A, 3-amino-6-(5-(3-amino-1,1,1-trifluoro-2-hydroxy-3-oxopropan-2-yl)-2-methylphenyl)-N-(3,3,3-trifluoro-2-hydroxypropyl)pyrazine-2-carboxamide]
< 100	–	Cc1ccc(C(O)(C(N)=O)C(F)(F)F)cc1-c1cnc(N)c(C(=O)NCC(C)(C)O)n1 (stereo not shown) [Example 1, 3-Amino-6-(5-(3-amino-1,1,1-trifluoro-2-hydroxy-3-oxopropan-2-yl)-2-methylphenyl)-N-(2-hydroxy-2-methylpropyl)pyrazine-2-carboxamide]
< 100	–	Cc1ccc(C(O)(C(N)=O)C(F)(F)F)cc1-c1cnc(N)c(C(=O)NC2CCOCC2)n1 (stereo not shown) [Example 2, 3-amino-6-(5-(3-amino-1,1,1-trifluoro-2-hydroxy-3-oxopropan-2-yl)-2-methylphenyl)-N-(tetrahydro-2H-pyran-4-yl)pyrazine-2-carboxamide trifluoroacetate]
< 100	–	Cc1ccc(C(O)(C(N)=O)C(F)(F)F)cc1-c1cnc(N)c(C(=O)NCC2(C#N)CC2)n1 (stereo not shown) [Example 4, 3-amino-6-(5-(3-amino-1,1,1-trifluoro-2-hydroxy-3-oxopropan-2-yl)-2-methylphenyl)-N-((1-cyanocyclopropyl)methyl)pyrazine-2-carboxamide trifluoroacetate]
< 100	–	Cc1ccc(C(O)(C(N)=O)C(F)(F)F)cc1-c1cnc(N)c(C(=O)NC(C)C)n1 (stereo not shown) [Example 5, 3-Amino-6-(5-(3-amino-1,1,1-trifluoro-2-hydroxy-3-oxopropan-2-yl)-2-methylphenyl)-N-isopropylpyrazine-2-carboxamide trifluoroacetate]
< 100	–	Cc1ccc(C(O)(C(N)=O)C(F)(F)F)cc1-c1cnc(N)c(C(=O)NC2CCC(F)(F)CC2)n1 (stereo not shown) [Example 6, 3-amino-6-(5-(3-amino-1,1,1-trifluoro-2-hydroxy-3-oxopropan-2-yl)-2-methylphenyl)-N-(4,4-difluorocyclohexyl)pyrazine-2-carboxamide trifluoroacetate]
< 100	–	CCNC(=O)c1nc(-c2cc(C(O)(C(N)=O)C(F)(F)F)ccc2C)cnc1N (stereo not shown) [Example 7, 3-Amino-6-(5-(3-amino-1,1,1-trifluoro-2-hydroxy-3-oxopropan-2-yl)-2-methylphenyl)-N-ethylpyrazine-2-carboxamide trifluoroacetate]
< 100	–	Cc1ccc(C(O)(C(N)=O)C(F)(F)F)cc1-c1cnc(N)c(C(=O)N[C@@H](C)CC#N)n1 (stereo partly drawn) [Example 8, 3-amino-6-(5-(3-amino-1,1,1-trifluoro-2-hydroxy-3-oxopropan-2-yl)-2-methylphenyl)-N-((S)-1-cyanopropan-2-yl)pyrazine-2-carboxamide trifluoroacetate]
< 100	–	Cc1ccc(C(O)(C(N)=O)C(F)(F)F)cc1-c1cnc(N)c(C(=O)N[C@@H]2CCCOC2)n1 (stereo partly drawn) [Example 9, 3-amino-6-(5-(3-amino-1,1,1-trifluoro-2-hydroxy-3-oxopropan-2-yl)-2-methylphenyl)-N-((R)-tetrahydro-2H-pyran-3-yl)pyrazine-2-carboxamide trifluoroacetate]
< 100	–	Cc1ccc(C(O)(C(N)=O)C(F)(F)F)cc1-c1cnc(N)c(C(=O)N[C@H]2CCCOC2)n1 (stereo partly drawn) [Example 10, 3-amino-6-(5-(3-amino-1,1,1-trifluoro-2-hydroxy-3-oxopropan-2-yl)-2-methylphenyl)-N-((S)-tetrahydro-2H-pyran-3-yl)pyrazine-2-carboxamide trifluoroacetate]
< 100	–	Cc1ccc(C(O)(C(N)=O)C(F)(F)F)cc1-c1cnc(N)c(C(=O)N[C@H]2CCOC2)n1 (stereo partly drawn) [Example 11, 3-amino-6-(5-(3-amino-1,1,1-trifluoro-2-hydroxy-3-oxopropan-2-yl)-2-methylphenyl)-N-((S)-tetrahydrofuran-3-yl)pyrazine-2-carboxamide trifluoroacetate]
< 100	–	Cc1ccc(C(O)(C(N)=O)C(F)(F)F)cc1-c1cnc(N)c(C(=O)N[C@@H](C)CO)n1 (stereo partly drawn) [Example 12, 3-amino-6-(5-(3-amino-1,1,1-trifluoro-2-hydroxy-3-oxopropan-2-yl)-2-methylphenyl)-N-((S)-1-hydroxypropan-2-yl)pyrazine-2-carboxamide]
< 100	–	Cc1ccc(C(O)(C(N)=O)C(F)(F)F)cc1-c1cnc(N)c(C(=O)NC(C)(C)CO)n1 (stereo not shown) [Example 13, 3-Amino-6-(5-(3-amino-1,1,1-trifluoro-2-hydroxy-3-oxopropan-2-yl)-2-methylphenyl)-N-(1-hydroxy-2-methylpropan-2-yl)pyrazine-2-carboxamide]
